Values belong to the compound of their own block, whether it stands above or below them. Activity calls are given as the source filed them. The rule behind the calls is not given here.
Key:
Clupeidae [1] = experiment: Binding affinity to herring sperm DNA assessed as hypochromism at 80 uM after 30 mins by UV-visible spectrophotometric method
Clupeidae [2] = experiment: Binding affinity to herring sperm DNA assessed as test compound fluorescence quenching by fluorescence spectroscopic method relative to control
Clupeidae [3] = experiment: Inhibition of ethidium bromide binding to herring sperm DNA assessed as fluorescence quenching of DNA-ethidium bromide complex up to 120 uM after 30 mins by fluorescence spectroscopic assay relative to control; parameters: scale not given: the % may be the effect or the level left
Clupeidae [4] = experiment: Binding affinity to herring sperm DNA after 30 mins by UV-visible spectrophotometric method
Clupeidae [5] = experiment: Binding affinity to herring sperm DNA assessed as red shift at 80 uM after 30 mins by UV-visible spectrophotometric method
Clupeidae [6] = experiment: Binding affinity to herring sperm DNA groove assessed as hyperchromic effect at DNA to compound molar ratio of >5.5 after 30 mins by UV-visible spectrophotometric method
Clupeidae [7] = experiment: Binding affinity to herring sperm DNA groove assessed as fluorescence quenching at DNA to compound molar ratio of >5.5 by fluorescence spectroscopic method
Clupeidae [8] = experiment: Binding affinity to herring sperm DNA assessed as Stern-Volmer quenching constant at 298 K by fluorescence spectroscopic method
Clupeidae [9] = experiment: Binding affinity to herring sperm DNA assessed as Stern-Volmer quenching constant at 303 K by fluorescence spectroscopic method
Clupeidae [10] = experiment: Binding affinity to herring sperm DNA assessed as Stern-Volmer quenching constant at 310 K by fluorescence spectroscopic method
Clupeidae [11] = experiment: Binding affinity to herring sperm DNA assessed as quenching constant at 298 K by fluorescence spectroscopic method
Clupeidae [12] = experiment: Binding affinity to herring sperm DNA assessed as quenching constant at 303 K by fluorescence spectroscopic method
Clupeidae [13] = experiment: Binding affinity to herring sperm DNA assessed as quenching constant at 310 K by fluorescence spectroscopic method
Clupeidae [14] = experiment: Inhibition of ethidium bromide binding to herring sperm DNA assessed as Stern-Volmer quenching constant at 298 K after 30 mins by fluorescence spectroscopic assay
Clupeidae [15] = experiment: Inhibition of ethidium bromide binding to herring sperm DNA assessed as Stern-Volmer quenching constant at 303 K after 30 mins by fluorescence spectroscopic assay
Clupeidae [16] = experiment: Inhibition of ethidium bromide binding to herring sperm DNA assessed as Stern-Volmer quenching constant at 310 K after 30 mins by fluorescence spectroscopic assay
Clupeidae [17] = experiment: Binding affinity to herring sperm DNA at 298 K by fluorescence spectroscopic method
Clupeidae [18] = experiment: Binding affinity to herring sperm DNA at 303 K by fluorescence spectroscopic method
Clupeidae [19] = experiment: Binding affinity to herring sperm DNA at 310 K by fluorescence spectroscopic method
Clupeidae [20] = experiment: Inhibition of ethidium bromide binding to herring sperm DNA at 298 K after 30 mins by fluorescence spectroscopic assay
Clupeidae [21] = experiment: Inhibition of ethidium bromide binding to herring sperm DNA at 303 K after 30 mins by fluorescence spectroscopic assay
Clupeidae [22] = experiment: Inhibition of ethidium bromide binding to herring sperm DNA at 310 K after 30 mins by fluorescence spectroscopic assay
Clupeidae [23] = experiment: Binding affinity to herring sperm DNA assessed as iodide quenching at 20 uM after 30 mins by fluorescence method (reference value: 27 L/mol)
Clupeidae [24] = experiment: Binding affinity to herring sperm DNA at 40 uM after 30 mins in presence of Na+ by fluorescence quenching method
Clupeidae [25] = experiment: Binding affinity to herring sperm DNA assessed as negative peak at 16 to 48 uM up to 30 mins by circular dichroism method (reference value: 210 nanometer)
Clupeidae [26] = experiment: Binding affinity to herring sperm DNA assessed as positive peak at 16 to 48 uM up to 30 mins by circular dichroism method (reference value: 280 nanometer)
Clupeidae [27] = experiment: Binding affinity to herring sperm DNA assessed as blue shift at 16 to 48 uM up to 30 mins by circular dichroism method
Clupeidae [28] = experiment: Binding affinity to herring sperm DNA groove assessed as up-field shift at 3 mg by 1H NMR method
Clupeidae [29] = experiment: Inhibition of ethidium bromide binding to herring sperm DNA assessed as DNA insertion at 3 mg by 1H NMR method
Clupeidae [30] = experiment: Inhibition of ethidium bromide binding to herring sperm DNA assessed as quenching constant at 298 K after 30 mins by fluorescence spectroscopic assay
Clupeidae [31] = experiment: Inhibition of ethidium bromide binding to herring sperm DNA assessed as quenching constant at 303 K after 30 mins by fluorescence spectroscopic assay
Clupeidae [32] = experiment: Inhibition of ethidium bromide binding to herring sperm DNA assessed as quenching constant at 310 K after 30 mins by fluorescence spectroscopic assay

Activity (Clupeidae [1]): 40%
Activity (Clupeidae [2]): 68.5%
Activity (Clupeidae [3]): 77.2%
SMILES: NCCCNCCCCNCCCN1C(=O)c2cccc3cccc(c23)C1=O

Kapp (Clupeidae [4]): 1.47 ×10⁵ L/mol
SMILES: NCCCCNCCCN

Activity (Clupeidae [1]): 60.7%
Activity (Clupeidae [5]): Active
Activity (Clupeidae [6]): Active
Kapp (Clupeidae [4]): 1.55 ×10³ L/mol
Activity (Clupeidae [2]): 91%
Activity (Clupeidae [3]): 87.8%
Activity (Clupeidae [7]): Active
KSV (Clupeidae [8]): 5.32 ×10³ L/mol
KSV (Clupeidae [9]): 5.63 ×10³ L/mol
KSV (Clupeidae [10]): 4.63 ×10³ L/mol
Kq (Clupeidae [11]): 5.32 ×10¹¹ L/mol
Kq (Clupeidae [12]): 5.63 ×10¹¹ L/mol
Kq (Clupeidae [13]): 4.63 ×10¹¹ L/mol
KSV (Clupeidae [14]): 1.18 ×10⁵ L/mol
KSV (Clupeidae [15]): 1.28 ×10⁵ L/mol
KSV (Clupeidae [16]): 1.45 ×10⁵ L/mol
Kb (Clupeidae [17]): 1.38 ×10⁴ L/mol
Kb (Clupeidae [18]): 1.25 ×10⁴ L/mol
Kb (Clupeidae [19]): 1.7 ×10⁴ L/mol
Kb (Clupeidae [20]): 1.23 ×10⁵ L/mol
Kb (Clupeidae [21]): 1.25 ×10⁵ L/mol
Kb (Clupeidae [22]): 1.21 ×10⁵ L/mol
KSV (Clupeidae [23]): 18.1 L/mol
Activity (Clupeidae [24]): Active
Activity (Clupeidae [25]): 245 nm
Activity (Clupeidae [26]): 280 nm
Activity (Clupeidae [27]): Active
Activity (Clupeidae [28]): Active
Activity (Clupeidae [29]): Active
Kq (Clupeidae [30]): 1.18 ×10¹³ L/mol
Kq (Clupeidae [31]): 1.28 ×10¹³ L/mol
Kq (Clupeidae [32]): 1.45 ×10¹³ L/mol
SMILES: NCCCNCCCCNCCCN1C(=O)c2ccc3c4c(ccc(c24)C1=O)C(=O)N(CCCNCCCCNCCCN)C3=O
